# Experiments:
# Leishmania mexicana = test: Antileishmanial activity against Leishmania mexicana promastigotes; format: functional, organism-based
# Leishmania donovani [1] = test: Antileishmanial activity against Leishmania donovani MHOM/IN/00/DEVI assessed as inhibition of parasite growth measured for 48 hrs by MTT assay; format: functional, organism-based
# HepG2 [2] = test: Cytotoxicity against human HepG2 cells assessed as reduction in cell growth measured after 48 hrs by SRB assay; format: functional
# Leishmania aethiopica = test: Antileishmanial activity against Leishmania aethiopica amastigotes assessed as inhibition of parasite growth measured after 24 hrs by Alamar blue based analysis; format: functional, organism-based
# Leishmania donovani [3] = test: Antileishmanial activity against Leishmania donovani promastigotes assessed as parasite growth inhibition incubated for 72 hrs by alamar blue staining based assay; format: functional, organism-based
# Leishmania donovani [4] = test: Antileishmanial activity against Leishmania donovani MHOM/SD/62/1S assessed as inhibition of parasite growth by resazurin/alamar blue fluorometric assay; format: functional, organism-based
# Leishmania donovani [5] = test: Antileishmanial activity against Leishmania donovani 9515 promastigotes assessed as inhibition of parasite growth incubated for 48 hrs by resazurin dye based assay; format: functional, organism-based; settings: Leishmania donovani, 9515, 48 h
# Leishmania major [6] = test: Antileishmanial activity against Leishmania major IR-173 promastigotes assessed as inhibition of parasite growth incubated for 48 hrs by resazurin dye based assay; format: functional, organism-based; settings: IR-173, 48 h
# Leishmania donovani [7] = test: Antileishmanial activity against Leishmania donovani promastigotes assessed as inhibition of parasite growth; format: functional, organism-based
# Leishmania major [8] = test: Antileishmanial activity against Leishmania major assessed as reduction in parasite growth; format: functional, organism-based
# Leishmania amazonensis [9] = test: Antileishmanial activity against Leishmania amazonensis promastigotes assessed as inhibition of parasite growth; format: functional; set-up: scale not given: the % may be the effect or the level left
# Leishmania amazonensis [10] = test: Antileishmanial activity against Leishmania amazonensis MHOM/BR/75/Josefa promastigotes assessed as reduction in parasite viability after 72 hrs by Neubauer chamber counting method; format: functional, organism-based
# HepG2 [11] = test: Antiproliferative activity against human HepG2 cells assessed as reduction in cell viability incubated for 72 hrs by MTT assay; format: functional, cell-based; settings: HepG2, 72 h
# Leishmania amazonensis [12] = test: Antileishmanial activity against Leishmania amazonensis IFLA/BR/1967/PH8 amastigotes infected in murine peritoneal macrophages incubated for 24 hrs by Giemsa staining based analysis; format: functional, organism-based; settings: IFLA/BR/1967/PH8, 24 h
# Leishmania donovani [13] = test: Antileishmanial activity against Leishmania donovani amastigotes infected in J774.A1 macrophage assessed as inhibition of parasite growth by luciferase assay; format: functional, organism-based
# Leishmania donovani [14] = test: Antileishmanial activity against Leishmania donovani amastigotes infected in human THP-1 cells assessed as inhibition of parasite infection incubated for 72 hrs by DAPI staining based assay; format: functional, organism-based; settings: THP-1, 72 h
# Leishmania major [15] = test: Antileishmanial activity against Leishmania major promastigotes assessed as reduction in parasite viability measured after 72 hrs by Giemsa-staining based microscopic analysis; format: functional, organism-based
# Leishmania major [16] = test: Antileishmanial activity against Leishmania major MHOM/IL/80/Friendlin assessed as reduction in parasite growth incubated for 48 hrs by MTT assay; format: functional, organism-based
# [17] = Antileishmanial activity against Leishmania infantum BCN-150 promastigotes assessed as reduction in parasite growth incubated for 48 hrs by MTT assay; format: functional
# HT-29 = test: Antiproliferative activity against human HT-29 cells assessed as reduction in cell viability incubated for 48 hrs by MTT assay; format: functional, cell-based; settings: HT-29, 48 h
# NCI-H1299 = test: Antiproliferative activity against human NCI-H1299 cells assessed as reduction in cell viability incubated for 48 hrs by MTT assay; format: functional, cell-based; settings: NCI-H1299, 48 h
# Leishmania donovani [18] = test: Antileishmanial activity against Leishmania donovani MHOM/SD/62/1S-CL2D promastigotes assessed as reduction in parasite growth incubated for 24 hrs by resazurin dye based analysis; format: functional, organism-based
# Leishmania donovani [19] = test: Antileishmanial activity against Leishmania donovani promastigotes assessed as parasitic proliferation inhibition incubated for 3 days by resazurin dye based assay; format: functional, organism-based
# Leishmania donovani [20] = test: Antileishmanial activity against Leishmania donovani MHOM/SD/62/1S amastigotes assessed as reduction in cell growth; format: functional, organism-based
# Leishmania braziliensis = test: Antileishmanial activity against Leishmania braziliensis promastigotes; format: functional, organism-based
# [21] = Cytotoxicity against African green monkey Vero cells assessed as reduction in cell growth; format: toxicity, cell-based, Chlorocebus sabaeus
smiles,measurement,setting,value
COc1cc(C(=O)/C=C/c2cccc([N+](=O)[O-])c2)ccc1OCC=C(C)C,IC50,Leishmania mexicana,4.57 µM
C(=N/CCCN(c1ccncc1)c1ccncc1)/c1cc(-c2ccccc2)c2ccc3c(-c4ccccc4)cc(/C=N/CCCN(c4ccncc4)c4ccncc4)nc3c2n1,IC50,Leishmania donovani [1],2.52 µM
same,CC50,HepG2 [2],1.64 µM
C(=N/CCCN(c1cccnc1)c1cccnc1)/c1cc(-c2ccccc2)c2ccc3c(-c4ccccc4)cc(/C=N/CCCN(c4cccnc4)c4cccnc4)nc3c2n1,IC50,Leishmania donovani [1],2.52 µM
same,CC50,HepG2 [2],1.64 µM
c1ccc(-c2nn(-c3ccccc3)cc2C2=NCCS2)cc1,IC50,Leishmania aethiopica,1.02 µg/mL
CN(C)CCCNC(=O)c1ccc2cc(Cl)ccc2n1,IC50,Leishmania donovani [3],5.85 µM
O=C(N/N=C/c1ccc([N+](=O)[O-])o1)c1ccc(OCc2ccc(F)cc2)cc1,IC50,Leishmania donovani [4],0.23 µM
same,IC50,Leishmania donovani [5],0.86 µM
same,IC50,Leishmania major [6],0.28 µM
CCCn1c(C)cc(O)c(C(=O)Nc2ccc(Br)cc2)c1=O,IC50,Leishmania donovani [7],55 µM
Cc1cc(O)c(C(=O)Nc2ccc(Br)cc2)c(=O)n1C1CC1,IC50,Leishmania donovani [7],55 µM
C(=N/CCCN(N1CCCCC1)N1CCCCC1)/c1cc(-c2ccccc2)c2ccc3c(-c4ccccc4)cc(/C=N/CCCN(N4CCCCC4)N4CCCCC4)nc3c2n1,IC50,Leishmania donovani [1],2.52 µM
same,CC50,HepG2 [2],1.64 µM
Cc1ccc2nc(C)c(C(=O)N3CCN(Cc4cn(-c5ccc(C(C)(C)C)cc5)nn4)CC3)n2c1,IC50,Leishmania major [8],15.1 µM
C/C=C1\NC(=S)NC1=O,Activity,Leishmania amazonensis [9],28%
CN(C)c1ccc(-c2nc(C(=O)NCCCl)cc3c2[nH]c2ccccc23)cc1,IC50,Leishmania amazonensis [10],16.8 µM
CCc1ccc(-n2cc(CN3CCN(C(=O)c4c(C)nc5ccc(Cl)cn45)CC3)nn2)cc1,IC50,Leishmania major [8],15.1 µM
Cc1nc2c3ccccc3c3ccccc3n2c1C(=O)NCc1cn(-c2cccc([N+](=O)[O-])c2)nn1,EC50,HepG2 [11],< 30 µM
O=C(CC[Se]c1ccnc2cc(Cl)ccc12)Nc1ccc([N+](=O)[O-])cc1,IC50,Leishmania amazonensis [12],5.67 µM
COc1ccc2nc(C(=O)NCCCN(C)C)ccc2c1,IC50,Leishmania donovani [3],8 µM
O=C(c1ccccc1)N1N=C(c2ccccc2)CC1c1cn(-c2ccc(Cl)cc2)nc1-c1ccccc1 (stereo unspecified),IC50,Leishmania donovani [13],0.08 µM
same,IC50,Leishmania donovani [14],0.87 µM
COC(=O)C1=C(C)NC(=S)NC1c1ccc(Cl)cc1 (stereo unspecified),EC50,Leishmania major [15],15.5 µM
N#C[Se]c1ccc2c(c1)OCO2,IC50,Leishmania major [16],4.6 µM
same,IC50,[17],3.3 µM
same,IC50,HT-29,61.2 µM
same,IC50,NCI-H1299,82.5 µM
CCCCCCCCCCCCCCCC(=O)CC(=O)N1CCC[C@@H]1COP(=O)([O-])OCC[N+](C)(C)C,IC50,Leishmania donovani [18],28.3 µM
CCOC(=O)C1=CNC(=S)NC1c1ccc(Cl)cc1 (stereo unspecified),IC50,"Leishmania donovani [19]; Leishmania donovani, 72 h, read-out: IC50",29.3 µg/mL
Cc1ccc2c(NCCCCCNC(=O)c3cccc(/C=C/C(=O)c4ccc(C)o4)c3)ccnc2c1,IC50,Leishmania donovani [20],0.46 µM
COc1ccc(Cn2c(C)cc(O)c(C(=O)Nc3ccc(C)cc3)c2=O)cc1,IC50,Leishmania donovani [7],55 µM
CCOC(=O)C1=CNC(=O)NC1c1ccc(C)cc1 (stereo in doubt; 82),IC50,Leishmania donovani [19],28.3 µg/mL
CCCC(=O)N1N=C(c2ccccc2)CC1c1cn(-c2ccc(Cl)cc2)nc1-c1ccccc1 (stereo unspecified),IC50,Leishmania donovani [13],0.89 µM
same,IC50,Leishmania donovani [14],1.45 µM
Cc1cc(OCCCCNC(C)(C)C)cc2oc3cc(OCCCCNC(C)(C)C)cc(O)c3c(=O)c12,IC50,Leishmania braziliensis,0.1 µM
same,IC50,[21],15.5 µM
COc1cc(/C=C/C(=O)c2ccccc2Cl)ccc1OCC=C(C)C,IC50,Leishmania mexicana,8.04 µM
Cc1ccc(-n2cc(C3=NCCS3)c(-c3ccccc3)n2)cc1,IC50,Leishmania aethiopica,1.02 µg/mL
CCCCCCCCCCCCCCCC(=O)CC(=O)N1CCC[C@H]1COP(=O)([O-])OCC[N+](C)(C)C,IC50,Leishmania donovani [18],52.6 µM
NC(=O)[C@@H]1CSC(c2cn(-c3ccccc3)nc2-c2ccccc2)N1 (stereo partly specified),IC50,Leishmania aethiopica,1.02 µg/mL
